Experimental data: US8053553B2, “Targeting host proteinases as a therapeutic strategy against viral and bacterial pathogens” (Socpra Sciences Sante Et Humaines, priority 2007, dated 2011)
pKi: −log10 of the molar value. Where two headings read alike, the source gives them in different places. Non-standard residues stand in square brackets, D forms with d. Residues, ends and D or L forms follow the SMILES beside them. Sar = CNCC(=O)O

Target: T1, furin (Homo sapiens, UniProt P09958)
T1 construct: made in house; host or cells: Drosophila S2 cells (Invitrogen expression system)
T1 sequence (P09958 108-794 limits assumed): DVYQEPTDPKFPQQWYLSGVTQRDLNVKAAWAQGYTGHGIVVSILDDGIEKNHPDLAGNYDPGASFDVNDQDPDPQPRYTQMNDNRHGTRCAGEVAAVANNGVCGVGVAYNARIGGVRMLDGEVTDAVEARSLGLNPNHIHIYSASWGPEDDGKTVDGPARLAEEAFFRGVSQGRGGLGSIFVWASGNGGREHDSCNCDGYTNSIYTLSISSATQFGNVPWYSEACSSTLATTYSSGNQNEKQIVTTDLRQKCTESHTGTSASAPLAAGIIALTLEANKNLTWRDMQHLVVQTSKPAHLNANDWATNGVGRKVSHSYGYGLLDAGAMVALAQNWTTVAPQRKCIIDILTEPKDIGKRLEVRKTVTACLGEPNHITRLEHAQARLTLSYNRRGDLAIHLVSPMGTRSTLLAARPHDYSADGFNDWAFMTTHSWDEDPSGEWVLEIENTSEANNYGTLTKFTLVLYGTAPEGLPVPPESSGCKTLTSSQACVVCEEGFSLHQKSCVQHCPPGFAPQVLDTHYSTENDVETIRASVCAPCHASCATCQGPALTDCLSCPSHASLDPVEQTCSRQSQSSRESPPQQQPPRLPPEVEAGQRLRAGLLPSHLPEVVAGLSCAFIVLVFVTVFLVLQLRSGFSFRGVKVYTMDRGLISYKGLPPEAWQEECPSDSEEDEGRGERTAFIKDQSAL
Test: biochemical
Conditions: furin, Pyr-RTKR-AMC substrate, read-out: Ki

[1] = alanine scanning mutagenesis of the H5 furin cleavage sequence (Table 2)
[2] = optimization of the inhibitory peptides (Table 3)

Compound	pKi [1]	pKi [2]
C[C@H](NC(=O)[C@H](C)NC(=O)[C@H](CCCNC(=N)N)NC(=O)[C@H](CCCNC(=N)N)NC(=O)[C@H](CCCNC(=N)N)NC(=O)[C@H](CCC(=O)O)NC(=O)[C@H](CCCNC(=N)N)NC(=O)[C@@H]1CCCN1C(=O)[C@@H](N)[C@@H](C)O)C(=O)N[C@@H](CCCNC(=N)N)C(=O)NCC(N)=O	< 7.00	
C[C@H](N)C(=O)N1CCC[C@H]1C(=O)N[C@@H](CCCNC(=N)N)C(=O)N[C@@H](CCC(=O)O)C(=O)N[C@@H](CCCNC(=N)N)C(=O)N[C@@H](CCCNC(=N)N)C(=O)N[C@@H](CCCNC(=N)N)C(=O)N[C@@H](CCCCN)C(=O)N[C@@H](CCCCN)C(=O)N[C@@H](CCCNC(=N)N)C(N)=O (H-APRERRRKKR-NH2)	< 7.00	
C[C@@H](O)[C@H](N)C(=O)N1CCC[C@H]1C(=O)N[C@@H](CCC(N)=O)C(=O)N[C@@H](CCCNC(=N)N)C(=O)NCCC(=O)N[C@@H](CCCNC(=N)N)C(=O)N[C@@H](CCCNC(=N)N)C(=O)N[C@@H](CCCNC(=N)N)C(=O)N[C@@H](CCCCN)C(=O)N[C@@H](CCCCN)C(=O)N[C@@H](CCCNC(=N)N)C(=O)NCC(N)=O [TPQR1RRRKKRG]		< 7.00
CC(C)[C@H](NC(=O)[C@H](CCCNC(=N)N)NC(=O)[C@H](CCCCN)NC(=O)[C@H](CCCCN)NC(=O)[C@H](CCCNC(=N)N)NC(=O)[C@H](CCCNC(=N)N)NC(=O)[C@H](CCCNC(=N)N)NC(=O)[C@H](CCC(=O)O)NC(=O)[C@H](C)NC(=O)[C@@H]1CCCN1C(=O)[C@@H](N)[C@@H](C)O)C(N)=O (H-TPAERRRKKRV-NH2)	< 7.00	
C[C@@H](O)[C@H](N)C(=O)N1CCC[C@H]1C(=O)N[C@@H](CCC(N)=O)C(=O)N[C@@H](CCCNC(=N)N)C(=O)N[C@H](CCCCN)C(=O)N[C@@H](CCCNC(=N)N)C(=O)N[C@@H](CCCNC(=N)N)C(=O)N[C@@H](CCCNC(=N)N)C(=O)N[C@@H](CCCCN)C(=O)N[C@@H](CCCCN)C(=O)N[C@@H](CCCNC(=N)N)C(=O)NCC(N)=O [TPQRkRRRKKRG]		< 7.00
C[C@H](NC(=O)[C@H](C)NC(=O)[C@H](CCC(=O)O)NC(=O)[C@H](CCCNC(=N)N)NC(=O)[C@@H]1CCCN1C(=O)[C@@H](N)[C@@H](C)O)C(=O)N[C@@H](C)C(=O)N[C@@H](CCCCN)C(=O)N[C@@H](CCCCN)C(=O)N[C@@H](CCCNC(=N)N)C(=O)NCC(N)=O (H-TPREAAAKKRG-NH2)	< 7.00	
C[C@H](NC(=O)[C@H](C)NC(=O)[C@@H]1CCCN1C(=O)[C@@H](N)[C@@H](C)O)C(=O)N[C@@H](CCCNC(=N)N)C(=O)N[C@@H](CCCNC(=N)N)C(=O)N[C@@H](CCCNC(=N)N)C(=O)N[C@@H](CCCCN)C(=O)N[C@@H](CCCCN)C(=O)N[C@@H](CCCNC(=N)N)C(N)=O (H-TPAARRRKKR-NH2)	< 7.00	
C[C@H](NC(=O)[C@H](CCCNC(=N)N)NC(=O)[C@H](CCC(N)=O)NC(=O)[C@@H]1CCCN1C(=O)[C@@H](N)[C@@H](C)O)C(=O)N[C@@H](CCCNC(=N)N)C(=O)N[C@@H](CCCNC(=N)N)C(=O)N[C@@H](CCCNC(=N)N)C(=O)N[C@@H](CCCCN)C(=O)N[C@@H](CCCCN)C(=O)N[C@@H](CCCNC(=N)N)C(=O)N[C@@H](CCCNC(=N)N)C(N)=O (H-TPQRARRRKKRR-NH2)		< 7.00
C[C@@H](O)[C@H](N)C(=O)N1CCC[C@H]1C(=O)N[C@@H](CCC(N)=O)C(=O)N[C@@H](CCCNC(=N)N)C(=O)N[C@@H](Cc1c[nH]cn1)C(=O)N[C@@H](CCCNC(=N)N)C(=O)N[C@@H](CCCNC(=N)N)C(=O)N[C@@H](CCCNC(=N)N)C(=O)N[C@@H](CCCCN)C(=O)N[C@@H](CCCCN)C(=O)N[C@@H](CCCNC(=N)N)C(=O)NCC(N)=O (H-TPQRHRRRKKRG-NH2)		< 7.00
C[C@@H](O)[C@H](N)C(=O)N1CCC[C@H]1C(=O)N[C@@H](CCC(N)=O)C(=O)N[C@@H](CCCNC(=N)N)C(=O)NCC(=O)N[C@@H](CCCNC(=N)N)C(=O)N[C@@H](CCCNC(=N)N)C(=O)N[C@@H](CCCNC(=N)N)C(=O)N[C@@H](CCCCN)C(=O)N[C@@H](CCCCN)C(=O)N[C@@H](CCCNC(=N)N)C(=O)NCC(N)=O (H-TPQRGRRRKKRG-NH2)		< 7.00
C[C@@H](O)[C@H](N)C(=O)N1CCC[C@H]1C(=O)N[C@@H](CCC(N)=O)C(=O)N[C@@H](CCCNC(=N)N)C(=O)N[C@@H](Cc1c[nH]c2ccccc12)C(=O)N[C@@H](CCCNC(=N)N)C(=O)N[C@@H](CCCNC(=N)N)C(=O)N[C@@H](CCCNC(=N)N)C(=O)N[C@@H](CCCCN)C(=O)N[C@@H](CCCCN)C(=O)N[C@@H](CCCNC(=N)N)C(=O)NCC(N)=O (H-TPQRWRRRKKRG-NH2)		< 7.00
C[C@H](NC(=O)[C@H](C)NC(=O)[C@H](CCCNC(=N)N)NC(=O)[C@H](CCCNC(=N)N)NC(=O)[C@H](CCC(=O)O)NC(=O)[C@H](CCCNC(=N)N)NC(=O)[C@@H]1CCCN1C(=O)[C@@H](N)[C@@H](C)O)C(=O)N[C@@H](CCCCN)C(=O)N[C@@H](CCCNC(=N)N)C(=O)N(C)CC(N)=O (H-TPRERRAAKR[Sar]-NH2)	< 7.00	
C[C@H](NC(=O)[C@H](CCCNC(=N)N)NC(=O)[C@H](CCC(N)=O)NC(=O)[C@@H]1CCCN1C(=O)[C@@H](N)[C@@H](C)O)C(=O)N[C@@H](CCCNC(=N)N)C(=O)N[C@@H](CCCNC(=N)N)C(=O)N[C@@H](CCCNC(=N)N)C(=O)N[C@@H](CCCCN)C(=O)N[C@@H](CCCCN)C(=O)N[C@@H](CCCNC(=N)N)C(=O)N[C@H](C(N)=O)[C@@H](C)O (H-TPQRARRRKKRT-NH2)		7.48
CC(C)[C@H](NC(=O)[C@H](CCCNC(=N)N)NC(=O)[C@H](CCCCN)NC(=O)[C@H](CCCCN)NC(=O)[C@H](CCCNC(=N)N)NC(=O)[C@H](CCCNC(=N)N)NC(=O)[C@H](CCCNC(=N)N)NC(=O)[C@H](CCC(=O)O)NC(=O)[C@H](CCCNC(=N)N)NC(=O)[C@@H]1CCCN1C(=O)[C@@H](N)[C@@H](C)O)C(N)=O (H-TPRERRRKKRV-NH2)	< 7.00	
C[C@H](NC(=O)[C@H](C)NC(=O)[C@@H]1CCCN1C(=O)[C@@H](N)[C@@H](C)O)C(=O)N[C@@H](C)C(=O)N[C@@H](CCCNC(=N)N)C(=O)N[C@@H](CCCNC(=N)N)C(=O)N[C@@H](CCCCN)C(=O)N[C@@H](CCCCN)C(=O)N[C@@H](CCCNC(=N)N)C(N)=O (H-TPAAARRKKR-NH2)	< 7.00	
CC(C)[C@H](NC(=O)[C@H](CCCNC(=N)N)NC(=O)[C@H](CCCCN)NC(=O)[C@H](CCCCN)NC(=O)[C@H](C)NC(=O)[C@H](C)NC(=O)[C@H](C)NC(=O)[C@H](CCC(=O)O)NC(=O)[C@H](CCCNC(=N)N)NC(=O)[C@@H]1CCCN1C(=O)[C@@H](N)[C@@H](C)O)C(N)=O (H-TPREAAAKKRV-NH2)	< 7.00	
C[C@H](NC(=O)[C@H](C)NC(=O)[C@H](CCC(=O)O)NC(=O)[C@H](CCCNC(=N)N)NC(=O)[C@@H]1CCCN1C(=O)[C@@H](N)[C@@H](C)O)C(=O)N[C@@H](C)C(=O)N[C@@H](CCCCN)C(=O)N[C@@H](CCCCN)C(=O)N[C@@H](CCCNC(=N)N)C(N)=O (H-TPREAAAKKR-NH2)	< 7.00	
C[C@H](NC(=O)[C@H](C)NC(=O)[C@@H]1CCCN1C(=O)[C@@H](N)[C@@H](C)O)C(=O)N[C@@H](CCCNC(=N)N)C(=O)N[C@@H](CCCNC(=N)N)C(=O)N[C@@H](CCCNC(=N)N)C(=O)N[C@@H](CCCCN)C(=O)N[C@@H](CCCCN)C(=O)N[C@@H](CCCNC(=N)N)C(=O)N(C)CC(N)=O (H-TPAARRRKKR[Sar]-NH2)	< 7.00	
CC(C)[C@H](NC(=O)[C@H](CCCNC(=N)N)NC(=O)[C@H](CCCCN)NC(=O)[C@H](CCCCN)NC(=O)[C@H](CCCNC(=N)N)NC(=O)[C@H](CCCNC(=N)N)NC(=O)[C@H](CCCNC(=N)N)NC(=O)[C@H](CCC(=O)O)NC(=O)[C@H](CCCNC(=N)N)NC(=O)[C@H](C)NC(=O)[C@@H](N)[C@@H](C)O)C(N)=O (H-TARERRRKKRV-NH2)	< 7.00	
C[C@H](NC(=O)[C@H](CCCNC(=N)N)NC(=O)[C@H](CCCNC(=N)N)NC(=O)[C@H](CCCNC(=N)N)NC(=O)[C@H](CCC(=O)O)NC(=O)[C@H](CCCNC(=N)N)NC(=O)[C@@H]1CCCN1C(=O)[C@@H](N)[C@@H](C)O)C(=O)N[C@@H](CCCCN)C(=O)N[C@@H](CCCNC(=N)N)C(N)=O (H-TPRERRRAKR-NH2)	< 7.00	
C[C@@H](O)[C@H](N)C(=O)N1CCC[C@H]1C(=O)N[C@@H](CCC(N)=O)C(=O)N[C@@H](CCCNC(=N)N)C(=O)N[C@@H](CO)C(=O)N[C@@H](CCCNC(=N)N)C(=O)N[C@@H](CCCNC(=N)N)C(=O)N[C@@H](CCCNC(=N)N)C(=O)N[C@@H](CCCCN)C(=O)N[C@@H](CCCCN)C(=O)N[C@@H](CCCNC(=N)N)C(=O)NCC(N)=O (H-TPQRSRRRKKRG-NH2)		< 7.00
CC(C)[C@H](NC(=O)[C@H](CCCNC(=N)N)NC(=O)[C@H](CCCCN)NC(=O)[C@H](CCCCN)NC(=O)[C@H](C)NC(=O)[C@H](C)NC(=O)[C@H](CCCNC(=N)N)NC(=O)[C@H](CCC(=O)O)NC(=O)[C@H](CCCNC(=N)N)NC(=O)[C@@H]1CCCN1C(=O)[C@@H](N)[C@@H](C)O)C(N)=O (H-TPRERAAKKRV-NH2)	< 7.00	
C[C@@H](O)[C@H](N)C(=O)N1CCC[C@H]1C(=O)N[C@@H](CCCNC(=N)N)C(=O)N[C@@H](CCC(=O)O)C(=O)N[C@@H](CCCNC(=N)N)C(=O)N[C@@H](CCCNC(=N)N)C(=O)N[C@@H](CCCNC(=N)N)C(=O)N[C@@H](CCCCN)C(=O)N[C@@H](CCCCN)C(=O)N[C@@H](CCCNC(=N)N)C(N)=O (H-TPRERRRKKR-NH2)	< 7.00	
CC(C)[C@H](NC(=O)[C@H](CCCNC(=N)N)NC(=O)[C@H](CCCCN)NC(=O)[C@H](CCCCN)NC(=O)[C@H](CCCNC(=N)N)NC(=O)[C@H](CCCNC(=N)N)NC(=O)[C@H](C)NC(=O)[C@H](C)NC(=O)[C@H](CCCNC(=N)N)NC(=O)[C@@H]1CCCN1C(=O)[C@@H](N)[C@@H](C)O)C(N)=O (H-TPRAARRKKRV-NH2)	< 7.00	
C[C@H](NC(=O)[C@H](C)NC(=O)[C@H](CCCNC(=N)N)NC(=O)[C@H](CCC(=O)O)NC(=O)[C@H](CCCNC(=N)N)NC(=O)[C@@H]1CCCN1C(=O)[C@@H](N)[C@@H](C)O)C(=O)N[C@@H](CCCCN)C(=O)N[C@@H](CCCCN)C(=O)N[C@@H](CCCNC(=N)N)C(N)=O (H-TPRERAAKKR-NH2)	< 7.00	
CC[C@H](C)[C@H](NC(=O)[C@H](CCCNC(=N)N)NC(=O)[C@H](CCC(N)=O)NC(=O)[C@@H]1CCCN1C(=O)[C@@H](N)[C@@H](C)O)C(=O)N[C@@H](CCCNC(=N)N)C(=O)N[C@@H](CCCNC(=N)N)C(=O)N[C@@H](CCCNC(=N)N)C(=O)N[C@@H](CCCCN)C(=O)N[C@@H](CCCCN)C(=O)N[C@@H](CCCNC(=N)N)C(=O)NCC(N)=O (H-TPQRIRRRKKRG-NH2)		< 7.00
